Test results: ChEMBL document CHEMBL4371035, “Design, synthesis and biological evaluation of bifunctional inhibitors of membrane type 1 matrix metalloproteinase (MT1-MMP)” (Bioorg Med Chem, 2019)
The source made the active and inactive calls. The rule behind the calls is not given here.

Legend:
Interstitial collagenase = biological target: T1, Interstitial collagenase (Homo sapiens, UniProt P03956); test: Inhibition of recombinant human pro-MMP1 using Mca-Lys-Pro-Leu-Gly-Leu-Dap(Dnp)-Ala-Arg-NH2 as substrate preincubated for 3 hrs followed by substrate addition and measured every 10 secs for 15 mins in presence of APMA by fluorometric assay
T1 sequence (P03956 whole entry): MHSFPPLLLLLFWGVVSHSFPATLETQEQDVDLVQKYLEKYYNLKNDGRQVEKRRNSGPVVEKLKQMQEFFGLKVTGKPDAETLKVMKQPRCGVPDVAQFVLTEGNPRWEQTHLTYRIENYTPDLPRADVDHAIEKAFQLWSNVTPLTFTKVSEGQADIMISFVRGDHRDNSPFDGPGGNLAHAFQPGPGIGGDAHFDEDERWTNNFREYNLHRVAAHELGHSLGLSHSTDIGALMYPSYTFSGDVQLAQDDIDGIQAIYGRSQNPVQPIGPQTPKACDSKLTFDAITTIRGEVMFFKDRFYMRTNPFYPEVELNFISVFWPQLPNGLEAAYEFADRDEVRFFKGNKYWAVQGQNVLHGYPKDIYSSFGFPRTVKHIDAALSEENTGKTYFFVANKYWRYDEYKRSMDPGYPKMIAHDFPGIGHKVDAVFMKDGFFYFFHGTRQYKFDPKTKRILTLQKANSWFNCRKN

[1] = biological target: T2, Matrix metalloproteinase-14 (Homo sapiens, UniProt P50281); test: Inhibition of MT1-MMP-mediated proMMP-2 activation in human HT1080 cells stimulated with type I collagen for 24 hrs followed by compound addition assessed as increase in active MT1-MMP (55 KDa) level at 1 to 10 uM and measured after 24 hrs by Western blot analysis; type: cell-based
[2] = biological target: T2, Matrix metalloproteinase-14; test: Inhibition of MT1-MMP-mediated proMMP-2 activation in human HT1080 cells stimulated with type I collagen for 24 hrs followed by compound addition assessed as increase in proMT1-MMP (65 KDa) level at 1 to 10 uM and measured after 24 hrs by Western blot analysis; type: cell-based
[3] = Aqueous solubility of the compound; type: physicochemical; conditions: water (aqueous)
HT-1080 = test: Cytotoxicity against human HT1080 cells at 10 to 50 uM after 4 hrs by MTS assay; type: cell-based; conditions: ht-1080, 4 h
[4] = biological target: T2, Matrix metalloproteinase-14; test: Inhibition of MT1-MMP-mediated collagen invasion in human HT1080 cells attached to gelatin-coated Cytodex 3 microcarrier beads assessed as cell migration out from the bead surface into collagen matrix at 1 to 10 uM and measured after overnight incubation by microcarriers beads invasion assay; type: cell-based
[5] = biological target: T2, Matrix metalloproteinase-14; test: Inhibition of MT1-MMP mediated collagenolytic activity in human HT1080 cells stimulated with type I collagen for 48 hrs followed by compound addition at 1 to 10 uM and measured after 48 hrs by Coomassie Blue staining-based collagen film degradation assay; type: cell-based
[6] = biological target: Matrix metalloproteinase-9 (Homo sapiens, UniProt P14780); test: Inhibition of recombinant human proMMP9 using Mca-Lys-Pro-Leu-Gly-Leu-Dap(Dnp)-Ala-Arg-NH2 as substrate preincubated for 3 hrs followed by substrate addition and measured every 10 secs for 15 mins in presence of APMA by fluorometric assay
Sequence of Matrix metalloproteinase-9 (P14780 whole entry): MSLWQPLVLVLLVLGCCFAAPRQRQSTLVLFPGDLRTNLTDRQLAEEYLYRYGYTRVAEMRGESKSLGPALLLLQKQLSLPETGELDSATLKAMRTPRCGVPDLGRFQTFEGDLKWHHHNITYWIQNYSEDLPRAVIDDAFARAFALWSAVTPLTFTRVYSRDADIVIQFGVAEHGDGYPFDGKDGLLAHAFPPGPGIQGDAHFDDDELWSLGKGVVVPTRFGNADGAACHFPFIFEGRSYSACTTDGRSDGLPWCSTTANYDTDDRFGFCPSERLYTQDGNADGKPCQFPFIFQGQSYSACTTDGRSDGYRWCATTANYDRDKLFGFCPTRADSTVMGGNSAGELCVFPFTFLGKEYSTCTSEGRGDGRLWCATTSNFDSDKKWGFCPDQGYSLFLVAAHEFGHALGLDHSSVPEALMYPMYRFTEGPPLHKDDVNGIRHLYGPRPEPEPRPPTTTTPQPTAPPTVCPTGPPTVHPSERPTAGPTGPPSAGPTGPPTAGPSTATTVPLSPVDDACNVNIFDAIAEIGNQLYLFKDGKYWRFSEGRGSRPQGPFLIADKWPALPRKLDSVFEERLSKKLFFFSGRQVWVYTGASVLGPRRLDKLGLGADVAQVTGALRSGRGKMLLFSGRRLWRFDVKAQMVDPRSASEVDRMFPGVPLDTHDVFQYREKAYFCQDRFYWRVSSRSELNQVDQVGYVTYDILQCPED

[7] = biological target: T2, Matrix metalloproteinase-14; test: Inhibition of MT1-MMP-mediated proMMP-2 activation in human HT1080 cells stimulated with type I collagen for 24 hrs followed by compound addition at <0.1 uM and measured after 24 hrs by gelatin zymography assay; type: cell-based
[8] = biological target: T2, Matrix metalloproteinase-14; test: Inhibition of recombinant human MT1-MMP catalytic domain using Mca-Lys-Pro-Leu-Gly-Leu-Dap(Dnp)-Ala-Arg-NH2 as substrate preincubated for 3 hrs followed by substrate addition and measured every 10 secs for 15 min by fluorometric assay
[9] = biological target: 72 kDa type IV collagenase (Homo sapiens, UniProt P08253); test: Inhibition of recombinant human proMMP2 using Mca-Lys-Pro-Leu-Gly-Leu-Dap(Dnp)-Ala-Arg-NH2 as substrate preincubated for 3 hrs followed by substrate addition and measured every 10 secs for 15 mins in presence of APMA by fluorometric assay
Sequence of 72 kDa type IV collagenase (P08253 whole entry): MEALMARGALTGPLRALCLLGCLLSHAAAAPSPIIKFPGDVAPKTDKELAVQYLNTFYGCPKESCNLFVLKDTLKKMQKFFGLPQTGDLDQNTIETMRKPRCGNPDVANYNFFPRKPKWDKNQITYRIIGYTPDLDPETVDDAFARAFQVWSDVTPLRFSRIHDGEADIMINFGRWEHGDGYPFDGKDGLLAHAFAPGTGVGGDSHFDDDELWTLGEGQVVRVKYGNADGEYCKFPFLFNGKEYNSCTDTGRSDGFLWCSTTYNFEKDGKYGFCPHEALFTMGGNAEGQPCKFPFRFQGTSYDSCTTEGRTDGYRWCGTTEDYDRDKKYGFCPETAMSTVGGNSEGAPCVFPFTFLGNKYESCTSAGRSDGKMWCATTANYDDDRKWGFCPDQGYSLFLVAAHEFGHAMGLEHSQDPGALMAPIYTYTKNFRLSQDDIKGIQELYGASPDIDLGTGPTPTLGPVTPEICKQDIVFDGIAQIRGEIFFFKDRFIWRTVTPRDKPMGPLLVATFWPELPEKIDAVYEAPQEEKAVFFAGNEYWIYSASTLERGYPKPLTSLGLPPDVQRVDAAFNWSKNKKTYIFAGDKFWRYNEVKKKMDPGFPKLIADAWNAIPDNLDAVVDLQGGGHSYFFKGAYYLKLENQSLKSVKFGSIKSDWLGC

[10] = biological target: T2, Matrix metalloproteinase-14; test: Inhibition of MT1-MMP-mediated proMMP-2 activation in human HT1080 cells stimulated with type I collagen for 24 hrs followed by compound addition at 1 to 10 uM and measured after 24 hrs by gelatin zymography assay; type: cell-based
[11] = biological target: T2, Matrix metalloproteinase-14; conditions: 10 uM
Description: Inhibition of MT1-MMP-mediated proMMP-2 activation in human HT1080 cells stimulated with type I collagen for 24 hrs followed by compound addition at 10 uM and measured after 24 hrs by gelatin zymography assay

[12] = biological target: T2, Matrix metalloproteinase-14; conditions: 0.01 to 10 uM
Description: Inhibition of MT1-MMP-mediated proMMP-2 activation in human HT1080 cells stimulated with type I collagen for 24 hrs followed by compound addition assessed as increase in active MT1-MMP (55 KDa) level at 0.01 to 10 uM and measured after 24 hrs by Western blot analysis

[13] = biological target: T2, Matrix metalloproteinase-14; test: Inhibition of MT1-MMP-mediated proMMP-2 activation in human HT1080 cells stimulated with type I collagen for 24 hrs followed by compound addition assessed as increase in proMT1-MMP (65 KDa) level at 0.01 to 10 uM and measured after 24 hrs by Western blot analysis; type: cell-based
[14] = biological target: T2, Matrix metalloproteinase-14; conditions: 0.01 to 10 uM; remark: listed apart in the source
Description: Inhibition of MT1-MMP-mediated proMMP-2 activation in human HT1080 cells stimulated with type I collagen for 24 hrs followed by compound addition assessed as reduction in processed form of MT1-MMP (40 KDa) level at 0.01 to 10 uM and measured after 24 hrs by Western blot analysis

[15] = biological target: T2, Matrix metalloproteinase-14; conditions: 0.1 to 10 uM
Description: Inhibition of MT1-MMP-mediated proMMP-2 activation in human HT1080 cells stimulated with type I collagen for 24 hrs followed by compound addition at 0.1 to 10 uM and measured after 24 hrs by gelatin zymography assay

[16] = biological target: T2, Matrix metalloproteinase-14; conditions: 10 uM; remark: listed apart in the source
Description: Inhibition of MT1-MMP mediated collagenolytic activity in human HT1080 cells stimulated with type I collagen for 48 hrs followed by compound addition at 10 uM and measured after 48 hrs by Coomassie Blue staining-based collagen film degradation assay

[17] = biological target: T2, Matrix metalloproteinase-14; conditions: 1 to 10 uM
Description: Inhibition of MT1-MMP-mediated proMMP-2 activation in human HT1080 cells stimulated with type I collagen for 24 hrs followed by compound addition assessed as reduction in processed form of MT1-MMP (40 KDa) level at 1 to 10 uM and measured after 24 hrs by Western blot analysis

[18] = biological target: T2, Matrix metalloproteinase-14; conditions: 0.01 uM
Description: Inhibition of MT1-MMP-mediated proMMP-2 activation in human HT1080 cells stimulated with type I collagen for 24 hrs followed by compound addition at 0.01 uM and measured after 24 hrs by gelatin zymography assay

Row | Structure (SMILES) | IC50 (Interstitial collagenase) | inhibition [1] | inhibition [2] | Activity (HT-1080) | inhibition [4] | inhibition [5] | IC50 [6] | IC50 [8] | IC50 [9] | also measured
1 | COc1ccc(-c2ccc(S(=O)(=O)N(CCNC(=O)c3cccc(C(=O)NCCN([C@H](CCN4C(=O)c5ccccc5C4=O)C(=O)NO)S(=O)(=O)c4ccc(-c5ccc(OC)cc5)cc4)c3)[C@H](CCN3C(=O)c4ccccc4C3=O)C(=O)NO)cc2)cc1 | 150 nM | Dose-dependent effect | Dose-dependent effect | Non-Toxic | Active | Active | 14 nM | 14 nM | 13 nM | solubility [3]: > 1000 µM; inhibition [7]: inactive; inhibition [10]: Active
2 | O=C(NCC[C@@H](NS(=O)(=O)c1ccc(-c2ccccc2)cc1)C(=O)NO)c1cccc(C(=O)NCC[C@@H](NS(=O)(=O)c2ccc(-c3ccccc3)cc2)C(=O)NO)c1 | 870 nM | – | – | – | – | – | 1.25 nM | 80 nM | 1.2 nM | –
3 | COc1ccc(-c2ccc(S(=O)(=O)N(CCNC(=O)CCCNC(=O)c3cccc(C(=O)NCCCC(=O)NCCN([C@H](CCN4C(=O)c5ccccc5C4=O)C(=O)NO)S(=O)(=O)c4ccc(-c5ccc(OC)cc5)cc4)c3)[C@H](CCN3C(=O)c4ccccc4C3=O)C(=O)NO)cc2)cc1 | 45 nM | – | – | – | – | – | 2.1 nM | 7 nM | 4.1 nM | –
4 | O=C(CCCNC(=O)c1cccc(C(=O)NCCCC(=O)NCC[C@@H](NS(=O)(=O)c2ccc(-c3ccccc3)cc2)C(=O)NO)c1)NCC[C@@H](NS(=O)(=O)c1ccc(-c2ccccc2)cc1)C(=O)NO | 155 nM | – | – | – | – | – | 8.7 nM | 41 nM | 1.6 nM | –
5 | COc1ccc(-c2ccc(S(=O)(=O)N(OC(C)C)[C@H](CCN3C(=O)c4ccccc4C3=O)C(=O)NO)cc2)cc1 | 170 nM | – | – | Toxic | Active | Active | – | – | – | inhibition [11]: Active; inhibition [12]: inactive; inhibition [13]: inactive; inhibition [14]: inactive
6 | CNC(=O)[C@H](Cc1c[nH]c2ccccc12)NC(=O)[C@@H](CC(=O)NO)CC(C)C | – | Active | Active | – | – | – | – | – | – | inhibition [15]: Active; inhibition [16]: 100%; inhibition [17]: Active; inhibition [18]: inactive
